This series relates to CD-1 mice. The text has this:
Lethal doses LD10 of a cytostatic active substance determinated in mice is generally considered as being a significative correlation with the maximum tolerated doses (MTD) in man.

Like-named read-outs stand apart in the source and are kept apart here.

As to `O=C1[O][Pt]2([NH]C3CCCCC3[NH]2)[O]C1=O` (stereo not drawn) [Example 1, cis-oxalate (trans l-1,2-cyclohexanediamine)-platinum (II)], the LD10 result runs as follows: (same solution with addition of oxalic acid at a final concentration of 0.2 mM (second group)) “around 14.4”; (solution of the oxaliplatin active substance alone (first group)) “around 18.0 mg/kg”.

For the origin of these results see patent US8211940B2 (Debiopharm S.A., priority 2001, dated 2012).
